Results reported in ChEMBL document CHEMBL4373727, “Thienopyrimidinone Derivatives That Inhibit Bacterial tRNA (Guanine37-N1)-Methyltransferase (TrmD) by Restructuring the Active Site with a Tyrosine-Flipping Mechanism” (J Med Chem, 2019).

Experiment: Selectivity ratio of Kd for full length Mycobacterium tuberculosis tRNA (guanine(37)-N1)-methyltransferase expressed in Escherichia coli BL21 (DE3) to Kd for Pseudomonas aeruginosa tRNA (guanine(37)-N1)-methyltransferase (Leu5 to Asp25 residues) expressed in Escherichia coli BL21 (DE3) Rosetta T1R cells

Structure (SMILES) | Ratio
NC1CCN(Cc2ccc(CNC(=O)c3csc4nc[nH]c(=O)c34)cc2)CC1 | 100 to 300
CCCCCCCCNCc1ccc(CNC(=O)c2csc3nc[nH]c(=O)c23)cc1 | 100
